Experimental data from article PMC6627058, “Slow-Binding Inhibition of Tyrosinase by Ecklonia cava Phlorotannins” (Marine Drugs, 2019).
Values joined by “and” are separate entries in the source; they are usually repeats but may differ in a detail not shown here. Equal entries are not always repeated. Where two headings read alike, the source gives them in different places.

Assays:
tyrosinase [1] = molecular target: T1, tyrosinase (Agaricus bisporus, UniProt C7FF04); details: cited from earlier work; for Mode of tyrosinase inhibition (literature): phlorotannins from seaweeds
T1 construct: purchased Sigma-Aldrich T3824

tyrosinase [2] = molecular target: T1, tyrosinase; experiment: Tyrosinase assay (L-tyrosine substrate, product detected at 475 nm); type: biochemical, mushroom; details: for Binding mode: Lineweaver–Burk and Dixon plots; for Ki: based on Dixon plots; for inhibition at 100 µM: read-out: Inhibitory activity on tyrosinase at 100 μM (%)
Procedure: Phlorotannins of E. cava and E. stolonifera were reported to have the inhibitory activity on mushroom tyrosinase. […] This study evaluated the ability of the isolated phlorotannins 1–7 to suppress the catalytic reaction of tyrosinase over time, in the absence or presence of inhibitor. […]. A commercial tyrosinase inhibitor was used as a positive control (kojic acid; […]. To identify potent inhibitors, the inhibitory activity of all of the isolated compounds at 100 μM was tested against tyrosinase in vitro (Table 1). Of these, compounds 2–5 were confirmed to have inhibitory activity exceeding 50%. Serial dilutions were used to calculate the IC50 values. The tyrosinase inhibitory activity increased in a dose-dependent fashion (Figure 2A). […]. To gain insight into the interaction of the enzyme with phlorotannins, as tyrosinase inhibitors, the products of the catalytic reaction were determined by ultraviolet-visible photometry after the inhibitor was added to the enzyme solution. The IC50 values of compounds 3 and 5 increased linearly with [S]/Km (Figure 2B). […]. Phlorotannins from seaweeds have been used to develop the non-competitive tyrosinase inhibitors 7-phloroeckol, dieckol, and phlorofucofuroeckol A, and the competitive inhibitors phloroglucinol and eckstolonol.
To evaluate inhibitory activity on tyrosinase with isolated compounds, 130 μL of tyrosinase in […] phosphate buffer (pH 6.8) was divided in 96 well plates. 20 μL of compound concentrations ranging from 1–0.015 mM was added. 50 μL of 1.5 mM L-tyrosine in phosphate buffer was diluted into the mixture for calculating the inhibitory activity. 50 μL of 10–0.62 mM L-tyrosine in buffer was added to analyze initial velocity (v0). After starting their reaction for 20 min, an amount of the product was detected at UV–vis 475 nm. […]

tyrosinase [3] = molecular target: T1, tyrosinase; experiment: Slow-binding inhibition analysis (progress curves); type: biochemical, mushroom; details: for Ki: apparent Ki from slow-binding analysis, read-out: kapp i; for Slow-binding mechanism: replot of kobs vs [I]
Procedure: To confirm time-dependent inhibition by the potential inhibitors (compounds 3 and 5), the substrate was added into a mixture of ligand (3.1 μM) that was preincubated with tyrosinase. Over time, their inhibitory activities increased. To calculate the slow-binding parameters (k3, k4, k5, k6, and kapp i), the progress curves were analyzed using equation (2), with increasing concentrations of compounds 3 and 5 (Figure 3C,D); a replot of kobs was obtained as [I] (Figure 3E,F). The replot of compound 3 was a straight line that fit equation (3). […] The two strongest inhibitors had different slow-binding mechanisms. Inhibitor 5, which has a higher molecular weight, induced a new conformational state of the enzyme.
The progress curves were calculated to Equation (2) by Morrison according to time course for 420 s. [P] = vst + [(v0 − vs)/kobs(1 − e^−kobst)](2) where t is time, [P] is product intensity, v0 and vs are the initial and steady-state reaction velocities, and kobs is the apparent first-order rate […]. kobs = k4 + k3[I](3) (4) Kiapp=k4/k3
This is a linear Equation (3) for slow-binding mechanism A. Kiapp is the apparent value of an inhibitor by Equation (4). Where [I] is inhibitor concentration. (5) kobs=k6+[(k5×[I])/(Kiapp+[I])
Equation (5) of hyperbola is for the calculation of rate constant in slow-binding mechanism B.

T1 sequence (C7FF04 1-392 limits assumed): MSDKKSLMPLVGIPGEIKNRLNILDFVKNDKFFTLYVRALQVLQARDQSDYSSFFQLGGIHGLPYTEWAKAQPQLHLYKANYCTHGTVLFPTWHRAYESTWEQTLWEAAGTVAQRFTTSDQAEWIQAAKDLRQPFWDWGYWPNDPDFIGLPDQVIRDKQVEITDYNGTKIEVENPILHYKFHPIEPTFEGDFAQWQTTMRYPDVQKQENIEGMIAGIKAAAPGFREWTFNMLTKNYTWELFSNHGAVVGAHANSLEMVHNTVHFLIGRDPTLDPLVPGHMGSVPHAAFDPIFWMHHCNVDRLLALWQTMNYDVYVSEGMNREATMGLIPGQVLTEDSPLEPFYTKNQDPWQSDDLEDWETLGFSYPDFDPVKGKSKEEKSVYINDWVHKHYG

Molecule: Oc1cc(O)cc(Oc2c(O)cc(O)c3c2Oc2c(O)cc(Oc4c(O)cc(Oc5c(O)cc(O)c6c5Oc5c(O)cc(O)cc5O6)cc4O)cc2O3)c1 [dieckol]
- Mode of tyrosinase inhibition (literature) (tyrosinase [1]): non-competitive

Molecule: Oc1cc(O)cc(Oc2c(O)cc(O)c3c2Oc2c(O)cc(Oc4c(O)cc(O)cc4O)cc2O3)c1 [7-phloroeckol]
- Mode of tyrosinase inhibition (literature) (tyrosinase [1]): non-competitive

Molecule: triphlorethol A [Compound 1]
- Inhibitory activity on tyrosinase at 100 μM (%) (tyrosinase [2]; compound at 100 μM, triplicate): 26.7 ± 1.0%

Molecule: Oc1cc(O)cc(Oc2c(Oc3c(O)cc(O)cc3O)cc(O)c3c2Oc2c(O)cc(O)cc2O3)c1 [Compound 3, 2-phloroeckol]
- Binding mode (tyrosinase [2]): Competitive
- Ki (tyrosinase [2]): 8.2 µM
- inhibition at 100 µM (tyrosinase [2]; compound at 100 μM, triplicate): 94.7 ± 1.4%
- IC50 (tyrosinase [2]; triplicate, read-out: IC50): < 10 µM and 7 µM
- Ki (tyrosinase [3]): 6.5 µM
- Slow-binding mechanism (tyrosinase [3]): a single-step binding mechanism
- K3 (tyrosinase [3]; slow-binding mechanism A): 0.0002 mM/s
- k4 (tyrosinase [3]; slow-binding mechanism A): 0.0013 s⁻¹

Molecule: Oc1cc(O)cc(Oc2c(O)cc(O)c3c2Oc2c(O)cc(O)cc2O3)c1 [Compound 2, eckol]
- IC50 (tyrosinase [2]; IC50, triplicate): 13.5 ± 0.1 µM
- inhibition at 100 µM (tyrosinase [2]; compound at 100 μM, triplicate): 86 ± 4.7%
- Binding mode (reported) (tyrosinase [1]): Reported as non-competitive ^d

Molecule: Oc1cc(O)cc(Oc2c(O)cc(O)c3c2Oc2c(O)cc4oc5c(Oc6cc(O)cc(O)c6)c(O)cc(O)c5c4c2O3)c1 [Compound 4, phlorofucofuroeckol A]
- IC50 (tyrosinase [2]; IC50, triplicate): 66.4 ± 0.1 µM
- inhibition at 100 µM (tyrosinase [2]; compound at 100 μM, triplicate): 57.1 ± 3.3%
- Mode of tyrosinase inhibition (literature) (tyrosinase [1]): non-competitive

Molecule: Oc1cc(O)cc(Oc2c(O)cc(O)c3c2Oc2c(O)cc(O)c(-c4c(O)cc(O)c5c4Oc4c(O)cc(Oc6c(O)cc(O)cc6O)c(Oc6cc(O)cc(O)c6)c4O5)c2O3)c1 [Compound 5, 2-O-(2,4,6-trihydroxyphenyl)-6,6′-bieckol]
- Binding mode (tyrosinase [2]): Competitive
- Ki (tyrosinase [2]): 5.8 µM
- inhibition at 100 µM (tyrosinase [2]; compound at 100 μM, triplicate): 86.9 ± 0.9%
- IC50 (tyrosinase [2]; triplicate, read-out: IC50): < 10 µM and 8.8 µM
- Ki (tyrosinase [3]): 4.4 µM
- Slow-binding mechanism (tyrosinase [3]): a two-step binding mechanism
- K5 (tyrosinase [3]; slow-binding mechanism B): 0.0047 s⁻¹
- K6 (tyrosinase [3]; slow-binding mechanism B): 0.0003 s⁻¹

Molecule: Oc1cc(O)cc(Oc2c(O)cc(O)c3c2Oc2c(cc(O)c(-c4c(O)cc(O)c5c4Oc4c(O)cc(O)c(Oc6cc(O)cc(O)c6)c4O5)c2O)O3)c1 [Compound 6, 6,8′-bieckol]
- inhibition at 100 µM (tyrosinase [2]; compound at 100 μM, triplicate): 41.2 ± 4.3%

Molecule: eckstolonol
- Mode of tyrosinase inhibition (literature) (tyrosinase [1]): competitive

Molecule: Oc1cc(O)cc(O)c1 [phloroglucinol]
- Mode of tyrosinase inhibition (literature) (tyrosinase [1]): competitive

Molecule: Oc1cc(O)cc(Oc2c(O)cc(O)c3c2Oc2c(cc(O)c(-c4c(O)cc5c(c4O)Oc4c(Oc6cc(O)cc(O)c6)c(O)cc(O)c4O5)c2O)O3)c1 [Compound 7, 8,8′-bieckol]
- inhibition at 100 µM (tyrosinase [2]): 43.3 ± 1.5%
